Measured values: patent publication US20170368052A1, “CRYSTAL FORMS OF APOMORPHINE AND USES THEREOF” (NeuroDerm, Ltd., priority 2014, published 2017)
“Also recorded” adds a separate entry of the source. Structures can show the parent of a compound that is named as a salt.

Experiments:
[1] = Stability of the reaction mixture at reflux in IPA with/without ascorbic acid-6-palmitate (HPLC); format: physicochemical; details: with ascorbic acid-6-palmitate, isolated solid
Experimental: In this case, the base was added under reflux and the procedure compared with and without ascorbic acid-6-palmitate as an antioxidant (Table 7).

[2] = cited from earlier work; for Literature pKa: bases of the base screen in n-BuOH; for pKa: amine bases used for salt release in IPA
[3] = Vacuum oven drying, retained solvent content; format: physicochemical; details: for Solvent content post-drying: vacuum oven, 45° C. for 24 h
Experimental: Four samples (B, G, H and O) were transferred to a vacuum oven and dried at 45° C. for 24 h.

[4] = Antioxidant additives: stability of apomorphine free base in MeOH solution (HPLC); format: physicochemical; details: MeOH (10 vol)
Experimental: However, the free base in solution is susceptible to aerial oxidation.
The vial was flushed with air, sealed, and stirred. The reactions were compared with a control reaction having no antioxidant. • A—in MeOH (10 vol) (control reaction) • B—ascorbic acid-6-palmitate (10 wt %) in MeOH (10 vol) • C—BHT (10 wt %) in MeOH (10 vol)
Samples were analyzed by HPLC. […] The HPLC profile just after addition of the antioxidant was of similar purity for each sample. After 24 h, sample B had precipitated a small amount of solid in a pale green solution. […] Key impurities elute early in the HPLC profile at RRT 0.15 and 0.18. In the samples without ascorbic acid-6-palmitate these impurities were >1.5% area.

[5] = Solubility of apomorphine free base and HCl salt in solvents; format: physicochemical
Experimental: This material was used in 50 mg portions (A0513-06).
The free base is fully soluble in 5 vol of either MeOH, EtOH, or n-BuOH. […] The free base precipitated as an oil from most solvents, particularly after heating. An apparently crystalline solid formed following dissolution of the free base and cooling in 1,4-dioxane.

[6] = Stability to air (color visually monitored); format: physicochemical; details: visual
Text: Samples of free base isolated from water, IPA, and MeOAc were retained open to air and the color visually monitored (FIG. 2). Over the course of 2 days, the products isolated from organic solvents discolored to green solids. […]

In the case of `CC(C)O.CN1CCc2cccc3c2C1Cc1ccc(O)c(O)c1-3` (stereo not shown) [A0513-98-03], the “% area: RRT 1.00” value [1] is reported as 99.93 % area and the “% area: RRT 1.25” value [1] is reported as 0.07 % area.

For `C[N+](C)(C)CC(=O)O` [Betaine], the “Literature pKa” value [2] is listed as 12.16.

Compound `CN1CCc2cccc3c2[C@H]1Cc1ccc(O)c(O)c1-3` [H] has a Solvent content post-drying [3] of 20.0 % w/w.

For `CN(C1CCCCC1)C1CCCCC1` [N-methyl-dicyclohexyl amine], the pKa [2] is given as 9.25.

Work on `CN1CCc2cccc3c2[C@H]1Cc1ccc(O)c(O)c1-3` [O] yielded a Solvent content post-drying [3] of 7.8 % w/w.

In the case of `CN1CCc2cccc3c2[C@H]1Cc1ccc(O)c(O)c1-3` [Sample B], the “HPLC purity compared between samples” value ([4]; after 24 h) is reported as “higher than for either A or C”, the “HPLC purity compared between samples” value ([4]; after 72 h) is reported as “highest purity” and the Solvent content post-drying [3] is reported as 23.4 % w/w.

In the case of `CN1CCc2cccc3c2[C@H]1Cc1ccc(O)c(O)c1-3` [Sample G], the IPA content remaining ([3]; 75° C. for 17 h under vacuum) is reported as 17.4 % w/w.

For `CC1(C)CCCC(C)(C)N1` [TMP, 2,2,6,6-tetramethylpiperidine], the pKa [2] is listed as 11.07 and the “Literature pKa” value [2] is listed as 11.07.

With `CN1CCc2cccc3c2[C@H]1Cc1ccc(O)c(O)c1-3` [apomorphine hydrochloride] the Solubility in methanol ([5]; listed as HCl salt, hydrochloride) was “the only solvent that dissolved any significant amount; also recorded: moderate solubility” and the “Solubility in n-BuOH” value ([5]; up to 20 vol at reflux) was “did not dissolve”.

With `CN1CCc2cccc3c2[C@H]1Cc1ccc(O)c(O)c1-3` [apomorphine] the “Solubility in EtOH” value ([5]; 5 vol, 50 mg portions) was “fully soluble”, the “Solubility in MeOH” value ([5]; 5 vol, 50 mg portions) was “fully soluble” and the “Solubility in n-BuOH” value ([5]; 5 vol, 50 mg portions) was “fully soluble”. The “Color of solid retained open to air” value ([6]; over 2 days) was “did not appear to change” and the “Time over which the solid gradually discolored open to air” value [6] was “about 4 weeks”.
